Results taken from article PMC6756013, “B591, a novel specific pan-PI3K inhibitor, preferentially targets cancer stem cells” (Oncogene, 2019).

What was measured:
[1] = system: PIP3/PI(4,5)P2 ratio in HCT116 cells; assay: Cellular PI3K kinase assay (PIP3 and PI(4,5)P2 ELISA); format: cell-based; conditions: 10 h treatment
Method: Cells were seeded at density of 3 × 10^7 cells/150 mm dish. After treatment with different concentrations of B591 for 10 h, the media was removed and 10 ml of ice-cold 0.5 M TCA was immediately added. Incubate cells on ice for 5 min. Cells were scraped and centrifuged at 3000 rpm for 7 min at 4 ℃. The pellet was resuspended in 3 ml of 5% […] acid/1 mM EDTA, vortexed for 30 s, and centrifuged at 3000 rpm for 5 min. The supernatant was discarded and the cells was washed one more time. Afterward, neutral lipids were extracted adding 3 ml of MeOH:CHCl3 (2:1) and continuously vortexing for 10 min at room temperature. Extracts were centrifuged at 3000 rpm for 5 min, the supernatant was discarded, and this extraction step was repeated one more time. The acidic lipids were extracted adding 2.25 ml MeOH:CHCl3:12 M HCl (80:40:1) with continuous vortexing over 25 min at room temperature. Extracts were centrifuged at 3000 rpm for 5 min and the supernatant was transferred to a new 15 ml tube; 0.75 ml of CHCl3 and 1.35 ml of 0.1 M HCl were added to the supernatant, vortexed, and centrifuged at 3000 rpm for 5 min to separate organic and aqueous phases. […] Once phospholipids were isolated from cells, PIP3 and PI(4,5)P2 levels were measured using ELISA kits (Echelon, K-2500s and K4500) according to the manufacturer’s instructions.

[2] = system: CHO cells stably expressing EGFP-Akt1; assay: Akt1 redistribution (IGF-1-stimulated membrane translocation of EGFP-Akt1); format: cell-based
Source text: Growth factors such as insulin-like growth factor 1 (IGF-1) and cytokines such as interleukin-6 stimulate and activate PI3K, leading to a subsequent increase of plasma membrane translocation and phosphorylation of Akt. Activated Akt promotes cell survival, cell growth and proliferation in human cancers.
Fig. 2 B591 inhibits PI3K/Akt pathway in multiple cancer cell lines. a Representative images of Akt1 redistribution in IGF-1-treated cells in the absence or presence of B591. Scale bar represents 10 μm. Arrows indicate IGF-1-mediated membrane translocation detected by the image analysis algorithm. b Inhibition of mTORC1 and mTORC2 signaling in multiple cancer cell lines, exposed for 5 h to increasing concentrations of B591. c HepG2 cells were treated with DMSO or 20 μM of B591 for 5 h. Immunofluorescence (red) intensity reflects eIF4E subcellular distribution. Cells were visualized with high content reader. Representative images are shown, and scale bar represents 50 μm. d Nuclear-to-cytoplasmic ratio of eIF4E in five cancer cell lines was determined via high content reader. e The phosphorylation of AKT and ERK was determined by immunoblotting in RD cells in the presence of 10 μM of B591 after indicated time of exposure. f Inhibition of the phosphorylation of AKT and ERK in RD cells treated with B591, PI-103 or Rapamycin for 24 h was determined by immunoblotting […]

[3] = system: eIF4E [nuc:cyto] ratio in SMMC7721, HepG2, MCF7, MDA-MB-231 and A549 cells; assay: Immunofluorescence and high content assay of eIF4E localization; format: cell-based; conditions: 5 h, five human cancer cell lines
Source text: The mRNA 5′ cap-binding protein eukaryotic initiation factor 4E (eIF4E) is a key regulator of cap-dependent translation initiation in the cytoplasm. Elevated level of eIF4E has been implicated in oncogenic transformation and tumorigenesis. The availability of eIF4E is tightly controlled through regulated interaction with 4E-BPs. eIF4E is predominantly cytoplasmic in mammalian cells, whereas serum-starvation and/or rapamycin-treatment: conditions that suppress mTOR signaling induces an accumulation of eIF4E within the nucleus. By using immunofluorescence assay, we assessed the effect of B591 on eIF4E subcellular localization of eIF4E. […] Further, five human cancer cell lines (SMMC7721, HepG2, MCF7, MDA-MB-231, and A549) were respectively treated with different concentrations of B591 for 5 h and eIF4E [nuc:cyto] ratios were determined by a high content assay using Thermo Scientific Cellomics ArrayScan VTI HCS.
Cells were seeded in 96-well plates (5,000 cells/well) and treated with DMSO or B591 for 5 h. Cells were then fixed with 4 % paraformaldehyde and followed by permeabilization with 0.1% triton X-100 and blocking in 2% bovine serum albumin in PBS. […] The subcellular location of eIF4E and the eIF4E nuclear–cytoplasmic intensity of each field per well was monitored and analyzed by using ArrayScan® VTI HCS Reader according to manufacturer’s instruction.

[4] = system: MDA-MB-231 orthotopic xenografts; assay: MDA-MB-231 orthotopic xenograft; format: in vivo, NOD/SCID mice; conditions: for Decrease of tumor burden (determined by volume): versus vehicle
Method: Then we evaluated the inhibitory effect of B591 on CSCs by in vivo xenograft assay (Fig. 5a). B591 (4 or 16 mg/kg) was given to the NOD/SCID mice bearing orthotopic xenografts of human breast cancer MDA-MB-231 cells for 2 weeks. […] The inhibition of PI3K/mTOR pathway by B591 in tumors was further confirmed by western blot analysis.
In MDA-MB-231 xenografts experiment, 1 × 10^6 cells were incubated into the mammary fat pad of mice orthotopically. When the volume of tumor reached above 50 mm^3, the mice were randomly divided into three groups for introperitoneal (i.p.) injection with vehicle, 4 mg/kg and 16 mg/kg B591. The tumor volume and the body weight of mice were measured during the 2-weeks treatment. In the end of treatment, the mice were killed, and the tumor tissues were dissected and dissociated into single cell suspension with Dispase II (Roche, Basel, Switzerland) according with the manufacture’s protocol. Then these single cells were used for CSCs phenotype assay, ALDH activity assay, mammosphere formation assay and limiting dilution assay in vivo as described above.

`Cc1cc2c(cc1C)[n+](Cc1ccccc1Br)cn2Cc1ccc2c(c1)CCO2.[Br-]` [B591, 3-(2-bromobenzyl)-1-((2,3-dihydrobenzofuran-5-yl)methyl) -5,6-dimethyl-1H-benzo[d]imidazol-3-ium bromide] was tested. Which “IC50 for decrease of PIP3/PI(4,5)P2 ratio” value [1] did it give?
The value was 1910 nM.

And the “IGF-1-stimulated translocation of Akt to the plasma membrane” value [2]?
The value was “potently prevented this translocation event in a concentration-dependent manner”.

What about the “eIF4E [nuc:cyto] ratio” value [3] of the same compound?
The value was “increased eIF4E [nuc:cyto] ratios in all the five cancer cells in a dose-dependent manner”.

What about the “Decrease of tumor burden (determined by volume)” value ([4]; 4 mg/kg i.p., 2 weeks) of the same compound?
The value was 40%.

And the “Inhibition based on final tumor weights” value ([4]; 16 mg/kg i.p., 2 weeks)?
The value was 70.7%.

What about the “Decrease of tumor burden (determined by volume)” value ([4]; 16 mg/kg i.p., 2 weeks) of the same compound?
The value was 60%.

And the Body weight ([4]; 4 or 16 mg/kg, 2 weeks)?
The Body weight was “no significant body weight loss”.

And the “CD44high/CD24low and ALDHhigh breast CSCs populations in xenograft tumors” value ([4]; tumors dissociated at end of treatment)?
Its value is “significantly reduced”.
